Reference: the supplement of paper PMC10307832

Tests used:
Assay in all cases: relative viability (nuclei count vs DMSO), 5 days (fraction); higher = more cells survive
Vemurafenib + Luminespib = compound: CCCS(=O)(=O)Nc1ccc(F)c(C(=O)c2c[nH]c3ncc(-c4ccc(Cl)cc4)cc23)c1F [Vemurafenib] + CCNC(=O)c1noc(-c2cc(C(C)C)c(O)cc2O)c1-c1ccc(CN2CCOCC2)cc1 [Luminespib] (partner 0.01 µM)
How it was run: (§1)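 After 5 days of treatment, lung cancer cells in 1536-well plates were fixed and stained in a single step (final 0.05% Triton X-100, 1% formaldehyde, 1 ug/ml Hoechst) and their nuclei counted on 4× images. Treatment had been applied by pin tool the day after seeding as one drug alone or as a fixed anchor-drug dose with five library-drug doses (not always all listed) in √10 steps. Relative viability is the nuclei count of treated wells divided by that of vehicle wells, and values are medians of duplicate plates.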

Vemurafenib + OSI-027 = compound: CCCS(=O)(=O)Nc1ccc(F)c(C(=O)c2c[nH]c3ncc(-c4ccc(Cl)cc4)cc23)c1F [Vemurafenib] + COc1cccc2cc(-c3nc([C@H]4CC[C@H](C(=O)O)CC4)n4ncnc(N)c34)[nH]c12 [OSI-027] (partner 0.5 µM)
How it was run: as §1

Vemurafenib + Linsitinib = compound: CCCS(=O)(=O)Nc1ccc(F)c(C(=O)c2c[nH]c3ncc(-c4ccc(Cl)cc4)cc23)c1F [Vemurafenib] + C[C@]1(O)C[C@@H](c2nc(-c3ccc4ccc(-c5ccccc5)nc4c3)c3c(N)nccn32)C1 [Linsitinib] (partner 1 µM)
How it was run: as §1

OSI-027 + Palbociclib = compound: COc1cccc2cc(-c3nc([C@H]4CC[C@H](C(=O)O)CC4)n4ncnc(N)c34)[nH]c12 [OSI-027] + CC(=O)c1c(C)c2cnc(Nc3ccc(N4CCNCC4)cn3)nc2n(C2CCCC2)c1=O [Palbociclib] (partner 0.5 µM)
How it was run: as §1

Cell Line | relative viability (Vemurafenib + Luminespib; first compound 0.03162 µM) | relative viability (Vemurafenib + Luminespib; first compound 0.1 µM) | relative viability (Vemurafenib + Luminespib; first compound 0.3162 µM) | relative viability (Vemurafenib + Luminespib; first compound 1 µM) | relative viability (Vemurafenib + OSI-027; first compound 0.03162 µM) | relative viability (Vemurafenib + OSI-027; first compound 0.1 µM) | relative viability (Vemurafenib + OSI-027; first compound 0.3162 µM) | relative viability (Vemurafenib + OSI-027; first compound 1 µM) | relative viability (Vemurafenib + Linsitinib; first compound 0.03162 µM) | relative viability (Vemurafenib + Linsitinib; first compound 0.1 µM) | relative viability (Vemurafenib + Linsitinib; first compound 0.3162 µM) | relative viability (Vemurafenib + Linsitinib; first compound 1 µM) | relative viability (OSI-027 + Palbociclib; first compound 0.01 µM) | relative viability (OSI-027 + Palbociclib; first compound 0.03162 µM) | relative viability (OSI-027 + Palbociclib; first compound 0.1 µM) | relative viability (OSI-027 + Palbociclib; first compound 0.3162 µM) | relative viability (OSI-027 + Palbociclib; first compound 1 µM)
NCI-H1915 | 0.698 | 0.727 | 0.795 | 0.636 | 0.585 | 0.639 | 0.471 | 0.533 | 1.05 | 1 | 1.05 | 1.04 | 0.535 | 0.523 | 0.429 | 0.388 | 0.268
NCI-H2126 | 0.847 | 0.905 |  | 0.972 | 0.606 | 0.591 | 0.856 | 0.651 | 0.804 | 0.699 | 0.757 | 0.681 | 0.362 | 0.361 | 0.36 | 0.34 | 0.347
EPLC-272H | 0.316 | 0.0941 | 0.494 | 0.228 | 0.268 | 0.219 | 0.275 | 0.243 | 1.03 | 0.824 | 1.14 | 1.11 | 0.332 | 0.379 | 0.342 | 0.316 | 0.29
LCLC-103H | 0.914 | 0.805 | 0.899 | 0.967 | 0.41 | 0.474 | 0.39 | 0.443 | 1.09 | 1.04 | 1.06 | 1.18 | 0.484 | 0.538 | 0.513 | 0.498 | 0.493
NCI-H661 | 0.979 | 0.806 | 0.897 | 0.953 | 0.673 | 0.559 | 0.658 | 0.688 | 0.573 | 0.516 | 0.663 | 0.637 | 0.375 | 0.424 | 0.368 | 0.347 | 0.301
PC-3 [JPC-3] | 0.671 |  | 0.724 | 0.782 | 0.698 |  | 0.724 | 0.731 | 0.909 |  | 1.02 | 1.03 | 0.535 | 0.522 | 0.563 | 0.5 | 0.439
NCI-H2087 | 0.166 | 0.185 |  | 0.162 | 0.481 | 0.565 |  | 0.514 | 0.882 | 0.94 |  | 0.868 | 0.261 | 0.169 | 0.207 | 0.195 | 0.142
NCI-H1666 | 0.933 | 0.877 | 1.02 | 0.966 | 0.845 | 0.802 | 0.98 | 0.929 | 0.853 |  | 0.922 | 0.841 | 0.691 | 0.675 | 0.65 | 0.577 | 0.671
NCI-H2009 | 0.93 | 0.912 | 0.861 | 0.921 | 0.606 | 0.483 | 0.389 | 0.325 | 1.19 | 1.03 | 1.09 | 1.06 | 0.211 | 0.237 | 0.171 | 0.173 | 0.232
NCI-H2228 | 0.148 | 0.161 | 0.19 | 0.172 | 0.548 | 0.634 | 0.634 | 0.474 | 0.819 | 0.587 | 0.773 | 0.587 | 0.65 | 0.638 | 0.849 | 0.75 | 0.383
SK-MES-1 | 0.866 | 0.553 | 0.646 | 0.745 | 0.56 | 0.456 | 0.548 | 0.444 | 1.06 | 0.892 | 1.03 | 1.07 | 0.294 | 0.322 | 0.286 | 0.275 | 0.274
LCLC-97TM1 | 0.811 | 0.768 | 0.807 | 0.817 | 0.49 | 0.612 | 0.713 | 0.43 | 0.181 | 0.212 | 0.175 | 0.157 | 0.236 | 0.205 | 0.217 | 0.139 | 0.239
BEN | 0.382 | 0.302 |  | 0.274 | 0.27 | 0.267 |  | 0.265 | 0.913 | 0.921 | 0.683 | 0.724 | 0.487 | 0.47 | 0.425 | 0.471 | 0.472
LU99A | 0.224 | 0.282 | 0.259 | 0.288 | 0.325 | 0.28 | 0.244 | 0.287 | 0.484 | 0.445 | 0.586 | 0.479 | 0.382 | 0.379 | 0.304 | 0.217 | 0.237
RERF-LC-KJ | 1.26 | 0.991 | 1.26 | 1.31 | 0.651 | 0.454 | 0.533 | 0.632 | 0.833 | 0.86 | 0.924 | 0.923 | 1.07 | 0.957 | 0.99 | 0.817 | 0.457
NCI-H1944 | 0.665 | 0.601 | 0.736 | 0.663 | 0.395 | 0.285 | 0.336 | 0.352 | 1.17 | 0.872 | 1.33 | 1.15 | 0.336 | 0.3 | 0.327 | 0.234 | 0.205
